Measurements published in patent US8076487B2, “Pyridone derivative and herbicide” (Kumiai Chemical Industry Co., Ltd., priority 2006, dated 2011).

How the values were obtained:
Type in all cases: in vivo
[1] = system: Japanese bulrush (Scirpus juncoides Roxb.); experiment: Test Example 1: herbicidal effect by soil application to paddy field; details: paddy field soil application; active ingredient 1,000 g per 1 hectare; wettable powder added dropwise to water surface the day after sowing; examined on the 21st day after application
Summary of the method: (§1)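 Plants were sown in flooded (3 cm) paddy soil and evaluated for herbicidal effect 21 days after soil application in a greenhouse.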

[2] = system: early watergrass (Echinochloa oryzicola Vasing); experiment: as above; details: paddy field soil application; active ingredient 1,000 g per 1 hectare; wettable powder added dropwise to water surface the day after sowing; examined on the 21st day after application
Summary of the method: as §1

[3] = system: heartshape false pickerelweed (Monochoria vaginalis (Burm.f.) C.Presl); experiment: as above; details: paddy field soil application; active ingredient 1,000 g per 1 hectare; wettable powder added dropwise to water surface the day after sowing; examined on the 21st day after application
Summary of the method: as §1

[4] = system: barnyardgrass (Echinochloa crus-galli (L.) P. Beauv. var. crus-galli); experiment: Test Example 2: herbicidal effect by soil application to upland field; details: soil surface spray, upland field soil, 1,000 g active ingredient per hectare, 21st day after application
Summary of the method: (§2)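 After sowing and covering, the soil received an even aqueous spray of wettable powder at a rate of 1,000 g active ingredient/ha (1,000 L/ha). Ratings of herbicidal effect followed a standard scale 21 days post-treatment, with plants held in a greenhouse.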

[5] = system: green foxtail (Setaria viridis (L.) P. Beauv.); experiment: as above; details: soil surface spray, upland field soil, 1,000 g active ingredient per hectare, 21st day after application
Summary of the method: as §2

[6] = system: slender amaranth (Amaranthus viridis L.); experiment: as above; details: soil surface spray, upland field soil, 1,000 g active ingredient per hectare, 21st day after application
Summary of the method: as §2

[7] = system: velvetleaf (Abutilon theophrasti medicus); experiment: as above; details: soil surface spray, upland field soil, 1,000 g active ingredient per hectare, 21st day after application
Summary of the method: as §2

[8] = system: barnyardgrass (Echinochloa crus-galli (L.) P. Beauv. var. crus-galli); experiment: Test Example 3: herbicidal effect by application to upland field (foliage treatment); details: foliage treatment, 1,000 g active ingredient per 1 hectare, 14th day after application, greenhouse
Summary of the method: (§3)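 Post-emergence spray at 1,000 g AI/ha of wettable powder in water (1,000 L/ha), onto seedlings grown 2 weeks in greenhouse field-soil pots. Graded day 14.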

[9] = system: green foxtail (Setaria viridis (L.) P. Beauv.); experiment: as above; details: foliage treatment, 1,000 g active ingredient per 1 hectare, 14th day after application, greenhouse
Summary of the method: as §3

[10] = system: slender amaranth (Amaranthus viridis L.); experiment: as above; details: foliage treatment, 1,000 g active ingredient per 1 hectare, 14th day after application, greenhouse
Summary of the method: as §3

[11] = system: velvetleaf (Abutilon theophrasti medicus); experiment: as above; details: foliage treatment, 1,000 g active ingredient per 1 hectare, 14th day after application, greenhouse
Summary of the method: as §3

Row | Compound | herbicidal effect, Scirpus juncoides Roxb. [1] | herbicidal effect, Echinochloa oryzicola Vasing [2] | herbicidal effect, Monochoria vaginalis (Burm. f.) C. Presl [3] | herbicidal effect (index), Barnyardgrass [4] | herbicidal effect (index), Green Foxtail [5] | herbicidal effect (index), Slender Amaranth [6] | herbicidal effect (index), Velvetleaf [7] | herbicidal effect, Barnyardgrass [8] | herbicidal effect, Green Foxtail [9] | herbicidal effect, Slender Amaranth [10] | herbicidal effect, Velvetleaf [11]
1 | COCCn1c(C(F)(F)F)ccc(C(=O)C2=C(O)C(C)(C)CCC2=O)c1=O [II-29] | 5 (90% or more of herbicidal effect and crop phytotoxicity) | 5 (90% or more of herbicidal effect and crop phytotoxicity) | 5 (90% or more of herbicidal effect and crop phytotoxicity) | 5 (90% or more of herbicidal effect and crop phytotoxicity) | 5 (90% or more of herbicidal effect and crop phytotoxicity) | 5 (90% or more of herbicidal effect and crop phytotoxicity) | 5 (90% or more of herbicidal effect and crop phytotoxicity) | 5 (90% or more of herbicidal effect and crop phytotoxicity) | 5 (90% or more of herbicidal effect and crop phytotoxicity) | 5 (90% or more of herbicidal effect and crop phytotoxicity) | 5 (90% or more of herbicidal effect and crop phytotoxicity)
2 | COCCOCCn1c(C(F)(F)F)ccc(C(=O)C2=C(O)C(C)(C)CCC2=O)c1=O [II-31] | 5 (90% or more of herbicidal effect and crop phytotoxicity) | 5 (90% or more of herbicidal effect and crop phytotoxicity) | 5 (90% or more of herbicidal effect and crop phytotoxicity) | 5 (90% or more of herbicidal effect and crop phytotoxicity) | 5 (90% or more of herbicidal effect and crop phytotoxicity) | 5 (90% or more of herbicidal effect and crop phytotoxicity) | 5 (90% or more of herbicidal effect and crop phytotoxicity) | 5 (90% or more of herbicidal effect and crop phytotoxicity) | 5 (90% or more of herbicidal effect and crop phytotoxicity) | 5 (90% or more of herbicidal effect and crop phytotoxicity) | 5 (90% or more of herbicidal effect and crop phytotoxicity)
3 | CC1(C)CCC(O)=C(C(=O)c2ccc(C(F)(F)F)n(-c3cc(F)cc(F)c3)c2=O)C1=O [II-40] | 5 (90% or more of herbicidal effect and crop phytotoxicity) | 5 (90% or more of herbicidal effect and crop phytotoxicity) | 5 (90% or more of herbicidal effect and crop phytotoxicity) | 5 (90% or more of herbicidal effect and crop phytotoxicity) | 5 (90% or more of herbicidal effect and crop phytotoxicity) | 5 (90% or more of herbicidal effect and crop phytotoxicity) | 5 (90% or more of herbicidal effect and crop phytotoxicity) | 5 (90% or more of herbicidal effect and crop phytotoxicity) | 4 (70 to less than 90% of herbicidal effect and crop phytotoxicity) | 5 (90% or more of herbicidal effect and crop phytotoxicity) | 5 (90% or more of herbicidal effect and crop phytotoxicity)
4 | CC1(C)C(=O)C(C(=O)c2ccc(C(F)(F)F)n(-c3ccccc3)c2=O)=C(O)C(C)(C)C1=O [II-41] | 4 (70 to less than 90% of herbicidal effect and crop phytotoxicity) | 5 (90% or more of herbicidal effect and crop phytotoxicity) | 5 (90% or more of herbicidal effect and crop phytotoxicity) | 4 (70 to less than 90% of herbicidal effect and crop phytotoxicity) | 5 (90% or more of herbicidal effect and crop phytotoxicity) | 5 (90% or more of herbicidal effect and crop phytotoxicity) | 5 (90% or more of herbicidal effect and crop phytotoxicity) | 5 (90% or more of herbicidal effect and crop phytotoxicity) | 5 (90% or more of herbicidal effect and crop phytotoxicity) | 4 (70 to less than 90% of herbicidal effect and crop phytotoxicity) | 5 (90% or more of herbicidal effect and crop phytotoxicity)
5 | Cn1c(C(F)(F)F)ccc(C(=O)C2=C(O)C3CCC(C3)C2=O)c1=O (stereo not shown) [III-1] | 5 (90% or more of herbicidal effect and crop phytotoxicity) | 5 (90% or more of herbicidal effect and crop phytotoxicity) | 5 (90% or more of herbicidal effect and crop phytotoxicity) | 5 (90% or more of herbicidal effect and crop phytotoxicity) | 5 (90% or more of herbicidal effect and crop phytotoxicity) | 5 (90% or more of herbicidal effect and crop phytotoxicity) | 5 (90% or more of herbicidal effect and crop phytotoxicity) | 4 (70 to less than 90% of herbicidal effect and crop phytotoxicity) | 5 (90% or more of herbicidal effect and crop phytotoxicity) | 5 (90% or more of herbicidal effect and crop phytotoxicity) | 5 (90% or more of herbicidal effect and crop phytotoxicity)
6 | CCCn1c(C(F)(F)F)ccc(C(=O)C2=C(O)C3CCC(C3)C2=O)c1=O (stereo not shown) [III-3] | 5 (90% or more of herbicidal effect and crop phytotoxicity) | 5 (90% or more of herbicidal effect and crop phytotoxicity) | 5 (90% or more of herbicidal effect and crop phytotoxicity) | 5 (90% or more of herbicidal effect and crop phytotoxicity) | 5 (90% or more of herbicidal effect and crop phytotoxicity) | 5 (90% or more of herbicidal effect and crop phytotoxicity) | 5 (90% or more of herbicidal effect and crop phytotoxicity) | 5 (90% or more of herbicidal effect and crop phytotoxicity) | 5 (90% or more of herbicidal effect and crop phytotoxicity) | 5 (90% or more of herbicidal effect and crop phytotoxicity) | 5 (90% or more of herbicidal effect and crop phytotoxicity)
7 | O=C(C1=C(O)C2CCC(C2)C1=O)c1ccc(C(F)(F)F)n(C2CC2)c1=O (stereo not shown) [III-5] | 5 (90% or more of herbicidal effect and crop phytotoxicity) | 5 (90% or more of herbicidal effect and crop phytotoxicity) | 5 (90% or more of herbicidal effect and crop phytotoxicity) | 5 (90% or more of herbicidal effect and crop phytotoxicity) | 5 (90% or more of herbicidal effect and crop phytotoxicity) | 5 (90% or more of herbicidal effect and crop phytotoxicity) | 5 (90% or more of herbicidal effect and crop phytotoxicity) | 5 (90% or more of herbicidal effect and crop phytotoxicity) | 5 (90% or more of herbicidal effect and crop phytotoxicity) | 5 (90% or more of herbicidal effect and crop phytotoxicity) | 5 (90% or more of herbicidal effect and crop phytotoxicity)
8 | CCCCn1c(C(F)(F)F)ccc(C(=O)C2=C(O)C3CCC(C3)C2=O)c1=O (stereo not shown) [III-6] | 5 (90% or more of herbicidal effect and crop phytotoxicity) | 5 (90% or more of herbicidal effect and crop phytotoxicity) | 5 (90% or more of herbicidal effect and crop phytotoxicity) | 5 (90% or more of herbicidal effect and crop phytotoxicity) | 5 (90% or more of herbicidal effect and crop phytotoxicity) | 5 (90% or more of herbicidal effect and crop phytotoxicity) | 5 (90% or more of herbicidal effect and crop phytotoxicity) | 5 (90% or more of herbicidal effect and crop phytotoxicity) | 5 (90% or more of herbicidal effect and crop phytotoxicity) | 5 (90% or more of herbicidal effect and crop phytotoxicity) | 5 (90% or more of herbicidal effect and crop phytotoxicity)
